Data: ChEMBL document CHEMBL3991601, “The target landscape of clinical kinase drugs” (Science, 2017)
Activity calls are given as the source filed them. For most assays here, no stated cut-off is given here; in the data, actives have a measured Kd and inactives only a lower limit.

Experiments:
[1] = target: Tyrosine-protein kinase ABL1 (Homo sapiens, UniProt P00519)
[2] = target: T1, AarF domain-containing protein kinase 1 (Homo sapiens, UniProt Q86TW2)
T1 sequence (Q86TW2 whole entry): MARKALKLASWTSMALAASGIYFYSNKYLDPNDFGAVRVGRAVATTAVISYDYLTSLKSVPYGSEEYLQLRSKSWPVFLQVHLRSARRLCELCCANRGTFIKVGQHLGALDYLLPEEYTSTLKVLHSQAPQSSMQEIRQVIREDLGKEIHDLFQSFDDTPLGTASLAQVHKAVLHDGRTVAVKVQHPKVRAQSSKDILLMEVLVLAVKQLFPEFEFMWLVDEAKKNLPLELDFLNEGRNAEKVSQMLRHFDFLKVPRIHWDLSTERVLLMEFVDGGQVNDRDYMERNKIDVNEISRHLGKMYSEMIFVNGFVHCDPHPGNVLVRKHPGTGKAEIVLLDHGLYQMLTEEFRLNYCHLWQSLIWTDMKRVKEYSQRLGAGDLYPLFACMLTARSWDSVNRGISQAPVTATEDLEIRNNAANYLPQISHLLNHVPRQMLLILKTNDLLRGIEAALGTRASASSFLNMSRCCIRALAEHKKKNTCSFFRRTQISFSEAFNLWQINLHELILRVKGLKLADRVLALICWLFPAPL

[3] = target: T2, Cyclin-G-associated kinase (Homo sapiens, UniProt O14976)
T2 sequence (O14976 whole entry): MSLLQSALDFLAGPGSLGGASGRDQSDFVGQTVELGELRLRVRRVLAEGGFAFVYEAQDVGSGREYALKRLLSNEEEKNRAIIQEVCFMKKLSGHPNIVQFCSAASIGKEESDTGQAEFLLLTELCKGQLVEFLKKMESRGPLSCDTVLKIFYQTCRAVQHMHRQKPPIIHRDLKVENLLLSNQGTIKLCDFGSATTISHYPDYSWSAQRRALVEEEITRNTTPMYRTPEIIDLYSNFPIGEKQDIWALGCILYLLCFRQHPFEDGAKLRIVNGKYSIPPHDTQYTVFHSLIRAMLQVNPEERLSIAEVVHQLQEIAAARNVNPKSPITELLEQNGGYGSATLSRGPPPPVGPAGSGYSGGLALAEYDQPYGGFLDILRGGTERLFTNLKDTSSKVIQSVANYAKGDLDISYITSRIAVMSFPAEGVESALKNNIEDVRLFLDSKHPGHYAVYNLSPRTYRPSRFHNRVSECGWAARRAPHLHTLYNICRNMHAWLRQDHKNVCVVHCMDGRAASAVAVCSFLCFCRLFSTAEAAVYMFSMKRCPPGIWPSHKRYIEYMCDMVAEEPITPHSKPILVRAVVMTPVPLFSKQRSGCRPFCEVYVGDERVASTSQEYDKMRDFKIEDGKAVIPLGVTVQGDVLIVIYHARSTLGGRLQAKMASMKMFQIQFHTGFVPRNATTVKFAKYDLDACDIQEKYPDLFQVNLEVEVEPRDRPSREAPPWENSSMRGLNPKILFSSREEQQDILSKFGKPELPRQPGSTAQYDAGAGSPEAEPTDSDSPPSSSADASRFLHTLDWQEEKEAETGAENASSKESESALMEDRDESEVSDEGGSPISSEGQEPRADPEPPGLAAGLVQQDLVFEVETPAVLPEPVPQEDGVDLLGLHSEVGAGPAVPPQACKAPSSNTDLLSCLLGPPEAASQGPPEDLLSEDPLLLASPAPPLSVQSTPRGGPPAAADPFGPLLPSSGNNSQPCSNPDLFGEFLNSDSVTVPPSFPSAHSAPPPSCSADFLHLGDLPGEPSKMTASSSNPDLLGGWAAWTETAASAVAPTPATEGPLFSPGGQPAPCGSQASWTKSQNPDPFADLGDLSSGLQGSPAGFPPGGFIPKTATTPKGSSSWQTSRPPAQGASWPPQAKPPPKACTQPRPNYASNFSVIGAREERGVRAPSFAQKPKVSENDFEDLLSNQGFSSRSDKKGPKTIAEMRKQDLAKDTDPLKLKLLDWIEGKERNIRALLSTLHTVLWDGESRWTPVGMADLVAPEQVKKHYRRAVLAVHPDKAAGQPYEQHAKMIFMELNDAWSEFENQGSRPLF

[4] = target: T3, DNA replication licensing factor MCM4 (Homo sapiens, UniProt P33991)
T3 sequence (P33991 whole entry): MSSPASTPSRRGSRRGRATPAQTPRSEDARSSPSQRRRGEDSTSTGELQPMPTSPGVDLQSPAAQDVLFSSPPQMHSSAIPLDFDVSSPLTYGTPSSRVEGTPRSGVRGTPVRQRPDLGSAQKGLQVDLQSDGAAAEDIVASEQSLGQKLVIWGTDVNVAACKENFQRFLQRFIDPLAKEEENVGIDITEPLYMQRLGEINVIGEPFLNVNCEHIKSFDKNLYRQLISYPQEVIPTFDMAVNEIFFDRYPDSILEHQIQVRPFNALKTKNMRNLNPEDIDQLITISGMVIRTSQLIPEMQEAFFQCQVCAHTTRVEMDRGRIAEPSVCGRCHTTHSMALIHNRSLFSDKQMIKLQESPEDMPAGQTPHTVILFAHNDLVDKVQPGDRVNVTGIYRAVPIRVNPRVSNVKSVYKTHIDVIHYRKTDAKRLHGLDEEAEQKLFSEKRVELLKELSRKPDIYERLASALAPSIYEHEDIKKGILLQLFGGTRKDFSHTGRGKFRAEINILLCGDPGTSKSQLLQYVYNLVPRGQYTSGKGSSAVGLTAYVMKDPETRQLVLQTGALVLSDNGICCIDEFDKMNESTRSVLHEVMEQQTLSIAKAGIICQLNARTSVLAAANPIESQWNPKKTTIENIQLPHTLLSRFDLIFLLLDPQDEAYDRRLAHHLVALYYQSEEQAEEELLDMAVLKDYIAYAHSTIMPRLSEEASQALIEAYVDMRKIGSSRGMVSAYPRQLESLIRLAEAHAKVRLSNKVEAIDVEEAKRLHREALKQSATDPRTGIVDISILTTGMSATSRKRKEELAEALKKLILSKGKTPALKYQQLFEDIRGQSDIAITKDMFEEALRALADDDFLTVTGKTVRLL

[5] = target: Myosin light chain kinase, smooth muscle (Homo sapiens, UniProt Q15746)
Myosin light chain kinase, smooth muscle, sequence (Q15746 whole entry): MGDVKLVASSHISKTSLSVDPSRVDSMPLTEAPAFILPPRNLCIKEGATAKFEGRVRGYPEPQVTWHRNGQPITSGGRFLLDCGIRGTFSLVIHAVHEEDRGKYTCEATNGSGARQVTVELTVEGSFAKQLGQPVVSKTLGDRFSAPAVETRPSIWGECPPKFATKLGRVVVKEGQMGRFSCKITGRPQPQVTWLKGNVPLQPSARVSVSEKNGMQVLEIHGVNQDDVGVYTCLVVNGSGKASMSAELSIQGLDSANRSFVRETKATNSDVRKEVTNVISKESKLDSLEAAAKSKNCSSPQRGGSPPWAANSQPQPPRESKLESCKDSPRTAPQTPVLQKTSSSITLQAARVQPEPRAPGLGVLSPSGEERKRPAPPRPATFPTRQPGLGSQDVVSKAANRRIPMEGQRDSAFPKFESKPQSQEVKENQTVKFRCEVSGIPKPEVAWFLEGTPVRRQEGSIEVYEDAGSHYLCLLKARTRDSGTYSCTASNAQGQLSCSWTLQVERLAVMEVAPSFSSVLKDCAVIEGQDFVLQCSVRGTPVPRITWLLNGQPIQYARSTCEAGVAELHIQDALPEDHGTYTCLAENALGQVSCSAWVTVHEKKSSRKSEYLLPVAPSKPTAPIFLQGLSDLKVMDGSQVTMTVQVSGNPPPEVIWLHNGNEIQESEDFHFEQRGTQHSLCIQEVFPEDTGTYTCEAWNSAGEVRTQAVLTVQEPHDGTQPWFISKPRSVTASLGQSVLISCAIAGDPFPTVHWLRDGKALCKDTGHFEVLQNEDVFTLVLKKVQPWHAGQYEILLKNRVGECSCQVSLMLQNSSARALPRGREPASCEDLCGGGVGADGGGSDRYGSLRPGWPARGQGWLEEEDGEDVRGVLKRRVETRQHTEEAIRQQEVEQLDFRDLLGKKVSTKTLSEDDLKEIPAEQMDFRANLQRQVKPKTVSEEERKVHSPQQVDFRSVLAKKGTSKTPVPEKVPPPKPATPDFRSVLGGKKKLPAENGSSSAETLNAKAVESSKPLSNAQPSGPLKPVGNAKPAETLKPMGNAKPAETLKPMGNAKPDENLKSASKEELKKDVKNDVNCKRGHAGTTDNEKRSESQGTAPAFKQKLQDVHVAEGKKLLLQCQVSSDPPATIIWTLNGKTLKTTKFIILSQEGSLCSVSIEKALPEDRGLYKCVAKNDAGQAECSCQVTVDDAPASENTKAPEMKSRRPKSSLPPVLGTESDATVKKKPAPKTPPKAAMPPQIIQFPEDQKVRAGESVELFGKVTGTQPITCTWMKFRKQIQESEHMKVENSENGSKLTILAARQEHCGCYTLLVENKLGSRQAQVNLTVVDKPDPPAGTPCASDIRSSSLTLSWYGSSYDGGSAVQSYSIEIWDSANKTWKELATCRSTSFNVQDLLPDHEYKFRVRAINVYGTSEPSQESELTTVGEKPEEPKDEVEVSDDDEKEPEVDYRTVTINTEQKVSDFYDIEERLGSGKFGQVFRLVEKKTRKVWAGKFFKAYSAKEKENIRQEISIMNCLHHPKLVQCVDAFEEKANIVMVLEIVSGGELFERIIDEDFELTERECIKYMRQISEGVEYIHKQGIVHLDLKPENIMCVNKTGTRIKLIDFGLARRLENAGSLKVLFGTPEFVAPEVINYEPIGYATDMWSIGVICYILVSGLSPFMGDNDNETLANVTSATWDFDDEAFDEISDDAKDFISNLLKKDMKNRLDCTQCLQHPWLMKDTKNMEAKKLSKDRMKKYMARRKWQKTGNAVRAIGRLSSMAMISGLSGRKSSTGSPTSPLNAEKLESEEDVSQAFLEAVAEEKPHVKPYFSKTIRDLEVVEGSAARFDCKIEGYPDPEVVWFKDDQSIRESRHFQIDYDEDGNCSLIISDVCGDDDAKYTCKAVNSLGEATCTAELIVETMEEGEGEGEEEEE

[6] = target: Receptor-interacting serine/threonine-protein kinase 2 (Homo sapiens, UniProt O43353)
Receptor-interacting serine/threonine-protein kinase 2, sequence (O43353 whole entry): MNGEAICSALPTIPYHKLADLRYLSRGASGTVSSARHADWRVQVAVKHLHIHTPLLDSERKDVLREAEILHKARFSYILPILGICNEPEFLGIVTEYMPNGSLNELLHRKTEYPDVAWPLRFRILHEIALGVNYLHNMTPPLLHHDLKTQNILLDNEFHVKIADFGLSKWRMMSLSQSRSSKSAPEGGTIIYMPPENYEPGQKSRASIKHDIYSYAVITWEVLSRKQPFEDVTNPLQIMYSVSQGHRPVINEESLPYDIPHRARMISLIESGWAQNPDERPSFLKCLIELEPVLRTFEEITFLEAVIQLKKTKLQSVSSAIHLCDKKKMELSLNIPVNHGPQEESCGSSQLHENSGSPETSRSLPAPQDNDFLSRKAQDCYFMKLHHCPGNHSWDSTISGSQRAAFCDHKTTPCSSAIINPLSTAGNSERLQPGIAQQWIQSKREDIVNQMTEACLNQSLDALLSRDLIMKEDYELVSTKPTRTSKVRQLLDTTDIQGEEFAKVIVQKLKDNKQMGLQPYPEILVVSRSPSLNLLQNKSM

[7] = target: Proto-oncogene tyrosine-protein kinase Src (Homo sapiens, UniProt P12931)
Proto-oncogene tyrosine-protein kinase Src, sequence (P12931 2-536 limits assumed): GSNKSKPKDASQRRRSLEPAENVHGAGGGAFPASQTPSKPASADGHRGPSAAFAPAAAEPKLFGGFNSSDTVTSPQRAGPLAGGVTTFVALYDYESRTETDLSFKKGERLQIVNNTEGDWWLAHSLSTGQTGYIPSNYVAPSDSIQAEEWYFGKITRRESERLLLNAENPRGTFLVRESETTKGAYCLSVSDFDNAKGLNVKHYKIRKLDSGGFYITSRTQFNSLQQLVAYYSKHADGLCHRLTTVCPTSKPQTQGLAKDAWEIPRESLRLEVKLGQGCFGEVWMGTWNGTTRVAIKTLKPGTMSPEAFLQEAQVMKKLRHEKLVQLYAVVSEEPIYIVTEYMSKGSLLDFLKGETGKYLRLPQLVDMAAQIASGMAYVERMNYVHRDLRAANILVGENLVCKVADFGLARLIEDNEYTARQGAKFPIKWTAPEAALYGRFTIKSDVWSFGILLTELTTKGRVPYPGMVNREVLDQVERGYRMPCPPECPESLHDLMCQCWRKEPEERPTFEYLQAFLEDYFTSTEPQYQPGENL

Tyrosine-protein kinase ABL1, sequence (P00519 whole entry, the tested form may be a part): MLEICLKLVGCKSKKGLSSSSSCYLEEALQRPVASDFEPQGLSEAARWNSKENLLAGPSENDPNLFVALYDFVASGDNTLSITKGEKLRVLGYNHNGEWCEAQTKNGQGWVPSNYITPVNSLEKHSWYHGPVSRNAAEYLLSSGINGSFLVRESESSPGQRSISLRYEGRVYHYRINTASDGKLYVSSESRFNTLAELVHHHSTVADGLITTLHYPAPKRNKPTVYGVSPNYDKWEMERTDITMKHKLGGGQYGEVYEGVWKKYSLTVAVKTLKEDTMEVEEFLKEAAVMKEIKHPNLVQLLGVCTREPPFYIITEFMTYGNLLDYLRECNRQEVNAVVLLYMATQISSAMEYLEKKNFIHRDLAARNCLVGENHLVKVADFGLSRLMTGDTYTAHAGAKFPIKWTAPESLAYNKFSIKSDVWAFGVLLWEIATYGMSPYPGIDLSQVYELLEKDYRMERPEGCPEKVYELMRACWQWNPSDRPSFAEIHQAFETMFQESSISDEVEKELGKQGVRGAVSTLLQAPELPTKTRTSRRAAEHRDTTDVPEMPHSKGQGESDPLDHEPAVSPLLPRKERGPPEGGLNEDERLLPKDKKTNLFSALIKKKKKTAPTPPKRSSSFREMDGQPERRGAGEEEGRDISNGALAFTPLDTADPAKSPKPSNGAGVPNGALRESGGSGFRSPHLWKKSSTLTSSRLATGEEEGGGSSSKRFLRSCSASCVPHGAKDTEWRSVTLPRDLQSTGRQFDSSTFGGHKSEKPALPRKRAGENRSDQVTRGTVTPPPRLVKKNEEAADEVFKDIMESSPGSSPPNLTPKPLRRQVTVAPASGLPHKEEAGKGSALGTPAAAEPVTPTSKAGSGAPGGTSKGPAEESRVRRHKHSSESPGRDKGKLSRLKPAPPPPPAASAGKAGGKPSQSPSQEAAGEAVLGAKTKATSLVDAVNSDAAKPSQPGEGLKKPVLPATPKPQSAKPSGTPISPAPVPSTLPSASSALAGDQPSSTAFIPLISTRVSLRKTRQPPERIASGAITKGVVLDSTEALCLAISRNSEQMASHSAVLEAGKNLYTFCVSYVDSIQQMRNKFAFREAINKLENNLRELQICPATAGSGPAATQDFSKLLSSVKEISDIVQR

Kd [1]	Kd [2]	Kd [3]	Kd [4]	Kd [5]	Kd [6]	Kd [7]	SMILES
> 30 µM (inactive)	> 30 µM (inactive)	> 30 µM (inactive)	> 30 µM (inactive)	> 30 µM (inactive)	1.16 µM (active)	> 30 µM (inactive)	COc1cccc2cc(-c3nc([C@H]4CC[C@H](C(=O)O)CC4)n4ncnc(N)c34)[nH]c12 [OSI-027]
> 30 µM (inactive)	> 30 µM (inactive)	> 30 µM (inactive)	> 30 µM (inactive)	> 30 µM (inactive)	> 30 µM (inactive)	> 30 µM (inactive)	O=C(NC[C@H](O)CO)c1ccncc1Nc1ccc(I)cc1F [PIMASERTIB]
> 30 µM (inactive)	> 30 µM (inactive)	0.45 µM (active)	> 30 µM (inactive)	> 30 µM (inactive)	> 30 µM (inactive)	> 30 µM (inactive)	C=CC(=O)Nc1cccc(Nc2nc(Nc3ccc(N4CCN(C(C)=O)CC4)cc3OC)ncc2C(F)(F)F)c1 [ROCILETINIB]
> 30 µM (inactive)	> 30 µM (inactive)	5.16 µM (active)	> 30 µM (inactive)	> 30 µM (inactive)	> 30 µM (inactive)	> 30 µM (inactive)	O=C(O)c1ccc2c(c1)nc(Nc1cccc(Cl)c1)c1ccncc12 [SILMITASERTIB]
0.918 µM (active)	> 30 µM (inactive)	> 30 µM (inactive)	> 30 µM (inactive)	> 30 µM (inactive)	> 30 µM (inactive)	> 30 µM (inactive)	Cc1cc(C(=O)Nc2cc(Oc3ccc4nc(NC(=O)C5CC5)cn4n3)ccc2C)n(C)n1 [TAK-593]
> 30 µM (inactive)	> 30 µM (inactive)	> 30 µM (inactive)	> 30 µM (inactive)	> 30 µM (inactive)	> 30 µM (inactive)	> 30 µM (inactive)	Cn1c(=O)c(F)c(Nc2ccc(I)cc2F)c2c(=O)n(C[C@@H](O)CO)cnc21 [TAK-733]
> 30 µM (inactive)	> 30 µM (inactive)	0.156 µM (active)	> 30 µM (inactive)	2.63 µM	> 30 µM (inactive)	> 30 µM (inactive)	O[C@H]1CC[C@H](Nc2ncc3nc(Nc4c(F)cc(F)cc4F)n([C@H]4CCOC4)c3n2)CC1 [TANZISERTIB]
> 30 µM (inactive)	> 30 µM (inactive)	> 30 µM (inactive)	> 30 µM (inactive)	> 30 µM (inactive)	> 30 µM (inactive)	> 30 µM (inactive)	CNC(=O)c1cc(COc2nnc(Nc3ccc(Cl)cc3)c3ccoc23)ccn1 [TELATINIB]
10.7 µM (active)	> 30 µM (inactive)	0.824 µM (active)	> 30 µM (inactive)	> 30 µM (inactive)	0.192 µM (active)	> 30 µM (inactive)	Cc1cc(-c2cc(OC(=O)c3ccccc3)ccc2Cl)cc2nnc(Nc3ccc(OCCN4CCCC4)cc3)nc12 [TG100-801]

Second part, the compound before the results:

SMILES	Kd [1]	Kd [2]	Kd [3]	Kd [4]	Kd [5]	Kd [6]	Kd [7]
Cc1ccc(C(=O)Nc2ccc(Oc3cc4cnn(C)c4cc3-c3cn[nH]c3)c(F)c2)c(=O)n1-c1ccc(F)cc1 [MERESTINIB]	> 30 µM (inactive)	> 30 µM (inactive)	> 30 µM (inactive)	> 30 µM (inactive)	> 30 µM (inactive)	> 30 µM (inactive)	> 30 µM (inactive)
O=C(NOC[C@H](O)CO)c1ccc(F)c(F)c1Nc1ccc(I)cc1F [MIRDAMETINIB]	> 30 µM (inactive)	> 30 µM (inactive)	> 30 µM (inactive)	> 30 µM (inactive)	> 30 µM (inactive)	> 30 µM (inactive)	> 30 µM (inactive)
O=C(Nc1ccc(OC(F)(F)F)cc1)c1sccc1NCc1ccnc2ccccc12 [OSI-930]	> 30 µM (inactive)	> 30 µM (inactive)	> 30 µM (inactive)	> 30 µM (inactive)	> 30 µM (inactive)	> 30 µM (inactive)	> 30 µM (inactive)
C=CC(=O)Nc1cc(Nc2nccc(-c3cn(C)c4ccccc34)n2)c(OC)cc1N(C)CCN(C)C [OSIMERTINIB]	> 30 µM (inactive)	> 30 µM (inactive)	> 30 µM (inactive)	> 30 µM (inactive)	> 30 µM (inactive)	> 30 µM (inactive)	> 30 µM (inactive)
FC(F)(F)c1ccc(CNc2ccc(Cc3c[nH]c4ncc(Cl)cc34)cn2)cn1 [PEXIDARTINIB]	> 30 µM (inactive)	> 30 µM (inactive)	> 30 µM (inactive)	> 30 µM (inactive)	> 30 µM (inactive)	> 30 µM (inactive)	> 30 µM (inactive)
COc1cc(F)c(F)c(Nc2ccc(I)cc2F)c1NS(=O)(=O)C1(C[C@H](O)CO)CC1 [REFAMETINIB]	> 30 µM (inactive)	0.778 µM	> 30 µM (inactive)	> 30 µM (inactive)	> 30 µM (inactive)	> 30 µM (inactive)	> 30 µM (inactive)
COCCN1CCN(Cc2ccc(-c3n[nH]c4c3C(=O)c3c(NC(=O)NN5CCOCC5)cccc3-4)cc2)CC1 [RGB-286638]	> 30 µM (inactive)	> 30 µM (inactive)	0.004 µM (active)	> 30 µM (inactive)	> 30 µM (inactive)	> 30 µM (inactive)	> 30 µM (inactive)
CN1CCN(c2nc(C3=C(c4c[nH]c5ccccc45)C(=O)NC3=O)c3ccccc3n2)CC1 [SOTRASTAURIN]	> 30 µM (inactive)	> 30 µM (inactive)	> 30 µM (inactive)	> 30 µM (inactive)	> 30 µM (inactive)	> 30 µM (inactive)	> 30 µM (inactive)
C[C@@H]1COC(Nc2ccc3ncnc(Nc4ccc(OCc5nccs5)c(Cl)c4)c3c2)=N1 [VARLITINIB]	> 30 µM (inactive)	> 30 µM (inactive)	> 30 µM (inactive)	> 30 µM (inactive)	> 30 µM (inactive)	0.81 µM (active)	> 30 µM (inactive)
